In assay [1] the target is T1, WDR5 (Homo sapiens, UniProt P61964). The assay is described as follows: Fluorescence Polarization (FP) binding assay. Summed up:
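Displacement of fluorescein-labelled H3 (1-15) (30 nM, with 0.3 μM WDR5) or 9-Ala-FAM (20 nM, with 0.05 μM WDR5) in 80 mM sodium phosphate pH 6.5, 20 mM KCl, 0.008% Triton X-100. FP read at 485/528 nm (H3) or 480/540 nm (9-Ala-FAM); Kdisp from hyperbolic fit, mean of quadruplicates.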
On the technique in general: In fluorescence polarisation assays a small probe gives low polarisation when free and higher when bound to something large.

For a further assay, the system named is MV4-11 cells. In words: Cell proliferation assay (ATPlite). The following applies: Homo sapiens, 120 h; MV4-11 cells, five days; read-out: GI MV411 EC50. The class given is cell-based. Summed up:
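Cells seeded at 1,000/well in Alpha-MEM with 10% FBS, treated with compound over a 10-point range (top 10 μM) or DMSO. Grown five days at 37° C, 5% CO2; viability by ATPlite luminescence.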

Assay [2] addresses T1, WDR5. In words: Surface Plasmon Resonance (SPR) assay. The class given is binding. More on the design: Full length WDR5 with an N-terminal His tag and C-terminal AviTag; His tag (N); made in house; host or cells: E. coli. The conditions noted are these: read-out: SPR Kd. A digest of the protocol: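 Full-length biotinylated WDR5 (N-His, C-AviTag, E. coli) captured (~3000 RU) on streptavidin SA chip; Biacore T200. HBS-EP pH 7.4 plus 5% DMSO running buffer, 40 μl/min.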

Take `C[C@@H]1CN(c2cc(F)c(-c3cnc(N4CCOCC4)nc3)c(F)c2NC(=O)c2ccc(F)cc2C(F)(F)F)C[C@H](C)N1C` [Example 10, N-(2,4-difluoro-3-(2-morpholinopyrimidin-5-yl)-6-((3S,5R)-3,4,5-trimethylpiperazin-1-yl)phenyl)-4-fluoro-2-(trifluoromethyl)benzamideformic acid]: on WDR5 [1], the IC50 is 0.01 µM. In addition, the 50% effective concentration (EC50) in the assay on MV4-11 cells came to 0.0592 µM. In addition, the Kd at WDR5 [2] amounted to 0.00033 µM.

`C[C@@H]1CN(c2ccc(-c3c(F)cc(N4CCN(C)[C@@H](C)C4)c(NC(=O)c4c[nH]c(=O)cc4C(F)F)c3F)cn2)C[C@H](C)O1` [Example 182, 4-(Difluoromethyl)-N-(3-(6-((2S,6R)-2,6-dimethylmorpholino)pyridin-3-yl)-6-((S)-3,4-dimethylpiperazin-1-yl)-2,4-difluorophenyl)-6-oxo-1,6-dihydropyridine-3-carboxamide]: the IC50 on WDR5 [1] was 0.0254 µM. In addition, the EC50 in the assay with MV4-11 cells worked out at 0.031 µM. For the same molecule, the Kd at WDR5 [2] came out at 0.00115 µM.

Regarding `C[C@@H]1CN(c2nccc(-c3c(F)cc(N4CCN(C)[C@@H](C)C4)c(NC(=O)c4c[nH]c(=O)cc4C(F)(F)F)c3F)n2)C[C@H](C)O1` [Example 58, N-(3-(2-((2S,6R)-2,6-dimethylmorpholino)pyrimidin-4-yl)-6-((S)-3,4-dimethylpiperazin-1-yl)-2,4-difluorophenyl)-6-oxo-4-(trifluoromethyl)-1,6-dihydropyridine-3-carboxamide], the half-maximal inhibitory concentration (IC50) on WDR5 [1] was 0.0151 µM. In addition, the EC50 in the assay with MV4-11 cells came to 0.0991 µM. Also, at WDR5 [2], the Kd is 0.00125 µM.

With `C[C@H]1CN(c2cc(F)c(-c3ccc(OC4CCOCC4)nc3)c(F)c2NC(=O)c2c[nH]c(=O)cc2C(F)(F)F)CCN1C` [Example 186, (S)—N-(6-(3,4-dimethylpiperazin-1-yl)-2,4-difluoro-3-(6-((tetrahydro-2H-pyran-4-yl)oxy)pyridin-3-yl)phenyl)-6-oxo-4-(trifluoromethyl)-1,6-dihydropyridine-3-carboxamide], the IC50 on WDR5 [1] came out at 0.0269 µM. The concentration giving a half-maximal response (EC50) in the assay with MV4-11 cells came to 0.0399 µM. Also, the Kd at WDR5 [2] was 0.0008 µM.

In the case of `C[C@H]1CN(c2cc(F)c(C3=CCCN(c4ncc(C#N)s4)C3)c(F)c2NC(=O)c2c[nH]c(=O)cc2C(F)(F)F)CCN1C` [Example 100, (S)—N-(3-(1-(5-cyanothiazol-2-yl)-1,2,5,6-tetrahydropyridin-3-yl)-6-(3,4-dimethylpiperazin-1-yl)-2,4-difluorophenyl)-6-oxo-4-(trifluoromethyl)-1,6-dihydropyridine-3-carboxamide], the concentration for half-maximal inhibition (IC50) on WDR5 [1] worked out at 0.0119 µM. The EC50 with MV4-11 cells was found to be 0.181 µM. Further, the Kd on WDR5 [2] came to 0.00145 µM.

In the case of `C[C@@H]1CN(c2ccc(-c3c(F)cc(N4CCN(C)[C@@H](C)C4)c(NC(=O)c4ccc(F)cc4C(F)(F)F)c3F)cn2)C[C@H](C)O1` [Example 176, N-(3-(6-((2S,6R)-2,6-dimethylmorpholino)pyridin-3-yl)-6-((S)-3,4-dimethylpiperazin-1-yl)-2,4-difluorophenyl)-4-fluoro-2-(trifluoromethyl)benzamide], on WDR5 [1], the IC50 was 0.0198 µM. Further, the half-maximal effective concentration (EC50) in the assay with MV4-11 cells was 0.139 µM. Besides, at WDR5 [2], the equilibrium dissociation constant (Kd) came out at 0.00146 µM.

`C[C@H]1CN(c2cc(F)c(C3=CCN(c4ncc(C#N)s4)C3)c(F)c2NC(=O)c2c[nH]c(=O)cc2C(F)F)CCN1C` [Example 95, (S)—N-(3-(1-(5-cyanothiazol-2-yl)-2,5-dihydro-1H-pyrrol-3-yl)-6-(3,4-dimethylpiperazin-1-yl)-2,4-difluorophenyl)-4-(difluoromethyl)-6-oxo-1,6-dihydropyridine-3-carboxamide]: the IC50 on WDR5 [1] came out at 0.0138 µM. In addition, the EC50 in the assay with MV4-11 cells amounted to 0.0964 µM. On WDR5 [2], the Kd stood at 0.00079 µM.

For the molecule `C[C@H]1CN(c2cc(F)c(-c3cnc(N4CC5CCC(C4)O5)nc3)c(F)c2NC(=O)c2c[nH]c(=O)cc2C(F)F)CCN1C` [Example 155, (S)—N-(3-(2-(8-oxa-3-azabicyclo[3.2.1]octan-3-yl)pyrimidin-5-yl)-6-(3,4-dimethylpiperazin-1-yl)-2,4-difluorophenyl)-4-(difluoromethyl)-6-oxo-1,6-dihydropyridine-3-carboxamide-], the IC50 on WDR5 [1] is 0.0112 µM. The EC50 in the assay on MV4-11 cells was 0.074 µM. In addition, the equilibrium dissociation constant (Kd) on WDR5 [2] was determined as 0.00121 µM.

Turning to `C[C@H]1CN(c2ncc(-c3c(F)cc(N4CCN(C)[C@@H](C)C4)c(NC(=O)c4c[nH]c(=O)cc4C(F)(F)F)c3F)cn2)C[C@H](C)O1` [Example 87, N-(3-(2-((2S,6S)-2,6-dimethylmorpholino)pyrimidin-5-yl)-6-((S)-3,4-dimethylpiperazin-1-yl)-2,4-difluorophenyl)-6-oxo-4-(trifluoromethyl)-1,6-dihydropyridine-3-carboxamide], at WDR5 [1], the IC50 stood at 0.00985 µM. The EC50 with MV4-11 cells is 0.0194 µM. Further, the Kd at WDR5 [2] was found to be 0.00147 µM.

As for `C[C@@H]1CN(c2cc(F)c(-c3cnc(N4CCO[C@@H](C)C4)nc3)c(F)c2NC(=O)c2c[nH]c(=O)cc2C(F)(F)F)C[C@H](C)N1C` [Example 101, N-(2,4-difluoro-3-(2-((S)-2-methylmorpholino)pyrimidin-5-yl)-6-((3S,5R)-3,4,5-trimethylpiperazin-1-yl)phenyl)-6-oxo-4-(trifluoromethyl)-1,6-dihydropyridine-3-carboxamide], the IC50 on WDR5 [1] worked out at 0.021 µM. Further, the EC50 in the assay on MV4-11 cells worked out at 0.0118 µM. In addition, at WDR5 [2], the Kd is 0.00617 µM.

Regarding `COc1cc(N2CCC=C(c3c(F)cc(N4CCN(C)[C@@H](C)C4)c(NC(=O)c4c[nH]c(=O)cc4C(F)(F)F)c3F)C2)ncn1` [Example 68, (S)—N-(6-(3,4-dimethylpiperazin-1-yl)-2,4-difluoro-3-(1-(6-methoxypyrimidin-4-yl)-1,2,5,6-tetrahydropyridin-3-yl)phenyl)-6-oxo-4-(trifluoromethyl)-1,6-dihydropyridine-3-carboxamide], at WDR5 [1], the IC50 came to 0.0195 µM. Further, the EC50 in the assay on MV4-11 cells amounted to 0.358 µM. In addition, the Kd at WDR5 [2] turned out to be 0.00137 µM.

`C[C@@H]1CN(c2ncc(-c3c(F)cc(N4CCN(C)[C@@H](C)C4)c(NC(=O)c4cn(C)c(=O)cc4C(F)(F)F)c3F)cn2)C[C@@H](C)O1` [Example 165, N-(3-(2-((2R,6R)-2,6-dimethylmorpholino)pyrimidin-5-yl)-6-((S)-3,4-dimethylpiperazin-1-yl)-2,4-difluorophenyl)-1-methyl-6-oxo-4-(trifluoromethyl)-1,6-dihydropyridine-3-carboxamide]: the IC50 on WDR5 [1] came to 0.0136 µM. Moreover, in the assay on MV4-11 cells, the concentration for a half-maximal effect (EC50) worked out at 0.169 µM. Further, at WDR5 [2], the Kd was found to be 0.00082 µM.

For the molecule `C[C@@H]1CN(c2cc(F)c(-c3cnc(N(C)C)nc3)c(F)c2NC(=O)c2c[nH]c(=O)cc2C(F)(F)F)C[C@H](C)N1C` [Example 70, N-(3-(2-(dimethylamino)pyrimidin-5-yl)-2,4-difluoro-6-((3S,5R)-3,4,5-trimethylpiperazin-1-yl)phenyl)-6-oxo-4-(trifluoromethyl)-1,6-dihydropyridine-3-carboxamide], the IC50 on WDR5 [1] was 0.0165 µM. The EC50 in the assay with MV4-11 cells is 0.0267 µM. Further, the Kd on WDR5 [2] turned out to be 0.00091 µM.

For the molecule `C[C@H]1CN(c2cc(F)c(C3=CCN(c4ccnc(C#N)n4)C3)c(F)c2NC(=O)c2c[nH]c(=O)cc2C(F)(F)F)CCN1C` [Example 107, (S)—N-(3-(1-(2-cyanopyrimidin-4-yl)-2,5-dihydro-1H-pyrrol-3-yl)-6-(3,4-dimethylpiperazin-1-yl)-2,4-difluorophenyl)-6-oxo-4-(trifluoromethyl)-1,6-dihydropyridine-3-carboxamide], the IC50 on WDR5 [1] turned out to be 0.0143 µM. For the same molecule, in the assay with MV4-11 cells, the EC50 was 0.0601 µM. In addition, the Kd on WDR5 [2] stood at 0.00262 µM.

`C[C@@H]1CN(c2nc(-c3c(F)cc(N4CCN(C)[C@@H](C)C4)c(NC(=O)c4c[nH]c(=O)cc4C(F)F)c3F)cs2)C[C@H](C)O1` [Example 132, 4-(Difluoromethyl)-N-(3-(2-((2S,6R)-2,6-dimethylmorpholino)thiazol-4-yl)-6-((S)-3,4-dimethylpiperazin-1-yl)-2,4-difluorophenyl)-6-oxo-1,6-dihydropyridine-3-carboxamide]: the IC50 at WDR5 [1] amounted to 0.0124 µM. In addition, in the assay on MV4-11 cells, the EC50 was determined as 0.132 µM. At WDR5 [2], the Kd stood at 0.00201 µM.

For `C[C@@H]1CN(c2ccc(-c3c(F)cc(N4C[C@@H](C)N(C)[C@@H](C)C4)c(NC(=O)c4c[nH]c(=O)cc4C(F)(F)F)c3F)cn2)CCO1` [Example 168, N-(2,4-difluoro-3-(6-((R)-2-methylmorpholino)pyridin-3-yl)-6-((3S,5R)-3,4,5-trimethylpiperazin-1-yl)phenyl)-6-oxo-4-(trifluoromethyl)-1,6-dihydropyridine-3-carboxamide], on WDR5 [1], the IC50 came to 0.0166 µM. Further, the concentration giving a half-maximal response (EC50) in the assay with MV4-11 cells amounted to 0.0368 µM. In addition, the Kd on WDR5 [2] was determined as 0.00087 µM.

Turning to `C[C@@H]1CN(c2nccc(-c3c(F)cc(N4CCN(C)[C@@H](C)C4)c(NC(=O)c4c[nH]c(=O)cc4C(F)F)c3F)n2)C[C@H](C)O1` [Example 59, 4-(Difluoromethyl)-N-(3-(2-((2S,6R)-2,6-dimethylmorpholino)pyrimidin-4-yl)-6-((S)-3,4-dimethylpiperazin-1-yl)-2,4-difluorophenyl)-6-oxo-1,6-dihydropyridine-3-carboxamide], the IC50 on WDR5 [1] amounted to 0.0144 µM. Besides, the EC50 in the assay with MV4-11 cells came out at 0.0566 µM. In addition, the Kd on WDR5 [2] was 0.00114 µM.

For orientation: IC50 means the concentration that inhibits the measured activity by half. The EC50 is the concentration at which the effect is half-maximal. As a reminder, the Kd is a measure of binding affinity in units of concentration.

Source of the values: patent US20200385371A1 (Propellon Therapeutics Inc., priority 2017, published 2020).
